Reference: patent US10143200B2, “Synergistic compositions for the protection of agrarian crops and the use thereof” (STICHTING I-F PRODUCT COLLABORATION, priority 2012, dated 2018)

Columns and labels:
Botrytis cinerea (BC) = assay: In vitro growth inhibition of spore suspensions (optical density 405 nm, 43 h); assay type: cell-based; conditions: concentration giving 50% growth inhibition; Botrytis cinerea spores, 43 hours at room temperature, average of three replicates
Puccinia recondita = assay: Fungicidal activity in preventive application (5 days) on wheat; assay type: in vivo, Puccinia recondita on wheat (Salgemma variety); conditions: leaf spray 5 days before inoculation, reduction of affected leaf area vs untreated, scale 0-100
Method: Leaves of wheat plants of the […] variety, grown in pots in a conditioned environment kept at 20° C. and 70% of relative humidity (R.H.), were treated by spraying both sides of the leaves with the compounds and the compositions under testing, dispersed in hydroacetonic solutions at 20% by volume of acetone. After remaining 5 days in a conditioned environment, the plants were sprayed on both sides of the leaves with an aqueous suspension of conidia of Puccinia recondita (2 mg of inoculum per 1 ml of solution for infection). After being sprayed, the plants were kept in a humidity-saturated environment at a temperature ranging from 18 to 24° C. for the incubation period of the fungus (1 day). After this period, the plants were put in a greenhouse with R.H. of 70% and at a temperature of 18-24° C. for 14 days. At the end of this period the external symptoms of the pathogen appeared and it was therefore possible to proceed with the visual assessment of the intensity of the infection. The fungicidal activity was expressed as percentage of reduction of affected leaves areas with respect to those of untreated plants used as control: the scale comprised, as extremes, the value 100 (full activity; healthy plant) and the value 0 (no activity; completely infected plant).

[1] = test system: Stagonospora nodorum (SN); assay: In vitro growth inhibition of spore suspensions (optical density 405 nm, 43 h); assay type: cell-based; conditions: concentration giving 50% growth inhibition; Stagonospora nodorum spores, 43 hours at room temperature, average of three replicates
wheat plants = assay: Phytotoxicity (percentage of leaf necrosis) on wheat plants; assay type: in vivo, wheat (Salgemma variety); conditions: scale 0 (none) to 100
Method: Leaves of wheat plants of the Salgemma variety, grown in pots in a conditioned environment kept at 20° C. and 70% of relative humidity (R.H.), were treated by spraying both sides of the leaves with the compounds and the compositions under testing, dispersed in hydroacetonic solutions at 20% by volume of acetone.
At the same time, the phytotoxicity (percentage of leaf necrosis) induced on the wheat plants by the application of the products and compositions was evaluated: in this case, the scale ranged from 0 (no phytotoxicity) to 100 (completely necrotized plant).

Row | Compound | EC50 against Botrytis cinerea (Botrytis cinerea (BC)) | % Activity (Puccinia recondita; Rate 62.5 ppm) | % Activity (Puccinia recondita; Rate 125 ppm) | SN EC50 [1] | % Phytotoxicity (wheat plants; Rate 62.5 ppm) | % Phytotoxicity (wheat plants; Rate 125 ppm)
1 | CC1CC(C)(C)c2c(F)ccc(NC(=O)c3cn(C)nc3C(F)F)c21 (single isomer, unassigned; (+)) [(+)-(I), 3-difluoromethyl-N-(7-fluoro-1,1,3-trimethyl-4-indanyl)-1-methyl-4-pyrazolecarboxamide] | n.i. | 20% | 45% | 72 ppm | 0% | 0%
2 | CC1CC(C)(C)c2c(F)ccc(NC(=O)c3cn(C)nc3C(F)F)c21 (single isomer, unassigned; (-)) [(−)-(I), 3-difluoromethyl-N-(7-fluoro-1,1,3-trimethyl-4-indanyl)-1-methyl-4-pyrazolecarboxamide] | 0.17 ppm | 96% | 100% | 0.42 ppm | 0% | 0%
3 | CC1CC(C)(C)c2c(F)ccc(NC(=O)c3cn(C)nc3C(F)F)c21 (racemic) [Racemic (I), 3-difluoromethyl-N-(7-fluoro-1,1,3-trimethyl-4-indanyl)-1-methyl-4-pyrazolecarboxamide] | 0.32 ppm | 96% | 98% | 1.1 ppm | 0% | 0%
